44 molecules from patent US7718651B2, “Inhibitors of FtsZ and uses thereof” (priority 2002, dated 2010) can be followed below.

Values after ≈ are worked out from the molar mass of the structure shown.

One experiment concerns M. tuberculosis H37Rv. The experiment can be described thus: microbe, parasite or virus in culture. Type of experiment: cell-based.
Settings: not given
As for `CCOC(=O)Nc1cc(N[C@@H](C)C(=O)c2ccc(O)cc2)c([N+](=O)[O-])c(N)n1` [Compound A305], the “% Inh” value is reported as −2%.

The same experiment, now with this note: M. tuberculosis H37Rv, screen concentration 12.5 g/ml [sic], Table 8.
Take `CCOC(=O)Nc1cc(NC(C)CCCN(CC)CC)c2ncc(-c3ccc(Cl)cc3)nc2n1.Cl` (stereo not shown) [Compound A5]: the “% Inh” value stood at 99%.

As for `CCOC(=O)Nc1cc(NC(C)CCCN(CC)CC)c2nc(-c3ccc(Cl)cc3)c(-c3ccc(Cl)cc3)nc2n1` (stereo not shown) [Compound A6], the “% Inh” value was 99%.

For the molecule `CCOC(=O)Nc1cc2c(c(N)n1)N=C(c1ccc(OCc3ccccc3)cc1)[C@H](C)N2` [Compound A8], the “% Inh” value stood at 99%.

With `CCOC(=O)Nc1cc2c(c(N)n1)N=C(c1ccc(OCc3ccccc3)cc1)[C@@H](C)N2` [Compound A9], the “% Inh” value amounted to 99%.

With `CCOC(=O)Nc1cc(N)c([N+](=O)[O-])c(NCC(O)CN(C)c2ccccc2)n1` (stereo not shown) [Compound A274], the “% Inh” value is given as 0%.

As for `CCOC(=O)Nc1cc(N)c2nc(O)[nH]c2n1` [Compound A275], the “% Inh” value was found to be 0%.

With `CCOC(=O)Nc1cc2ncc(C)nc2c(NC(=O)OCC)n1` [Compound A276], the “% Inh” value is 0%.

For `CCOC(=O)Nc1cc2nc(C)cnc2c(NC(=O)OCC)n1` [Compound A277], the “% Inh” value is 0%.

Consider `CCOC(=O)Nc1cc2[nH]cnc2c(NC(=O)OCC)n1.Cl` [Compound A278], for which the “% Inh” value is listed as 0%.

As to `C=CCNc1cc(NC(=O)OCC)nc(N)c1[N+](=O)[O-]` [Compound A279], the “% Inh” value is given as 0%.

For the molecule `CCOC(=O)Nc1cc(NC(c2ccccc2)c2ccccc2)c2nc[nH]c2n1.Cl` [Compound A280], the “% Inh” value is on record as 0%.

As to `C=CCNc1cc(NC(=O)OCC)nc(NC(=O)OCC)c1[N+](=O)[O-]` [Compound A281], the “% Inh” value came to 0%.

Consider `CCOC(=O)Nc1cc(N)c2nc(C)cnc2n1` [Compound A282], for which the “% Inh” value stood at 0%.

As to `CCOC(=O)Nc1cc(N)c2c(n1)NCC(C)=N2` [Compound A283], the “% Inh” value is 0%.

Take `Nc1nc(NC(=O)OCc2ccccc2)cc(Cl)c1[N+](=O)[O-]` [Compound A286]: the “% Inh” value was 0%.

On to `CCOC(=O)Nc1cc2c(c(N)n1)N=C(CN(C)c1ccc(C(=O)OC)cc1)CN2` [Compound A288], for which the “% Inh” value is 0%.

On to `CCOC(=O)Nc1cc2ncc(CNc3ccc(C(=O)OCC)cc3)nc2c(N)n1` [Compound A289], for which the “% Inh” value turned out to be 0%.

As for `CCOC(=O)Nc1cc(NC/C(CNc2ccc(C(=O)OCC)cc2)=N/O)c([N+](=O)[O-])c(N)n1` [Compound A291], the “% Inh” value was 0%.

Turning to `CCOC(=O)Nc1cc(NCC(=O)COc2ccc(C(=O)OCC)cc2)c([N+](=O)[O-])c(N)n1` [Compound A292], the “% Inh” value stood at 0%.

Take `CCOC(=O)N(Cc1ccccc1)c1cc(Cl)c([N+](=O)[O-])c(N)n1` [Compound A293]: the “% Inh” value is on record as 0%.

`CCOC(=O)N(Cc1ccc(S(N)(=O)=O)cc1)c1cc(Cl)c([N+](=O)[O-])c(N)n1` [Compound A294]: the “% Inh” value was found to be 0%.

Take `CCOC(=O)Nc1cc(NC(c2ccccc2)c2ccccc2)c([N+](=O)[O-])c(OCC(=O)c2ccc(Br)cc2)n1` [Compound A295]: the “% Inh” value is reported as 0%.

In the case of `CCOC(=O)Nc1cc2[nH]c(-c3cccc(C)c3)nc2c(N(CCc2ccccc2)Cc2ccccc2)n1` [Compound A297], the “% Inh” value is on record as 0%.

As for `CCOC(=O)Nc1cc(NC(c2ccccc2)c2ccccc2)c([N+](=O)[O-])c(O)n1` [Compound A298], the “% Inh” value came to 0%.

As to `CCOC(=O)Nc1cc(NC(c2ccccc2)c2ccccc2)c([N+](=O)[O-])c(Cl)n1` [Compound A299], the “% Inh” value is reported as 0%.

Take `CCOC(=O)Nc1cc(NCC(=O)c2ccc(-c3ccccc3)cc2)c([N+](=O)[O-])c(N)n1` [Compound A300]: the “% Inh” value was determined as 0%.

Take `CCOC(=O)Nc1cc(NC(CC)C(O)c2ccccc2)c([N+](=O)[O-])c(N)n1` (stereo not shown) [Compound A301]: the “% Inh” value is on record as −1%.

Turning to `CCCCC(Nc1cc(NC(=O)OCC)nc(N)c1[N+](=O)[O-])C(C)O` (stereo not shown) [Compound A302], the “% Inh” value was −1%.

In the case of `CCOC(=O)Nc1cc(NC(C)C(O)c2ccc(O)cc2)c([N+](=O)[O-])c(N)n1` (stereo not shown) [Compound A303], the “% Inh” value was −2%.

Consider `CCOC(=O)Nc1cc(N[C@@H](C)C(=O)c2ccc(O)cc2)c([N+](=O)[O-])c(N)n1` [Compound A304], for which the “% Inh” value is listed as −2%.

On to `CCOC(=O)Nc1cc2c(c(N)n1)N=C(c1ccccc1)C(CC)N2` (stereo not shown) [Compound A306], for which the “% Inh” value is on record as −3%.

As to `CCOC(=O)Nc1cc(NC(CC)C(=O)c2ccccc2)c([N+](=O)[O-])c(N)n1` (stereo not shown) [Compound A307], the “% Inh” value is recorded as −8%.

For the molecule `CCOC(=O)Nc1cc(NCCC(=O)c2ccccc2)c([N+](=O)[O-])c(N)n1` [Compound A308], the “% Inh” value was −8%.

As for `CCOC(=O)Nc1cc(N[C@@H](C)C(O)c2ccccc2)c([N+](=O)[O-])cn1` (stereo partly shown) [Compound A309], the “% Inh” value is listed as −10%.

For `CCOC(=O)Nc1cc(N[C@H](C)[C@@H](O)c2ccccc2)c(N)c(N)n1` [Compound A310], the “% Inh” value is listed as −15%.

Consider `CCOC(=O)Nc1cc2c(c(NC(c3ccccc3)c3ccccc3)n1)N=C(c1ccccc1)C1NC=CN21` (stereo not shown) [Compound A311], for which the “% Inh” value is reported as −16%.

Regarding `CCOC(=O)Nc1cc(NC(C)[C@H](O)c2ccccc2)c(N)c(N)n1` (stereo partly shown) [Compound A312], the “% Inh” value is −19%.

Take `CCOC(=O)Nc1cc(NC(C)C(=O)Cc2ccccc2)c([N+](=O)[O-])c(N)n1` (stereo not shown) [Compound A313]: the “% Inh” value is on record as −21%.

For `CCOC(=O)Nc1cc(NC(C)C(=O)c2ccccc2)c([N+](=O)[O-])cn1` (stereo not shown) [Compound A314], the “% Inh” value was −36%.

Still in this experiment, the particulars now being: Mycobacterium tuberculosis; M. tuberculosis H37Rv; at 12.5% μg/ml (so in the source); read-out: Primary Screen PI (% inhibition of growth).
Usually inhibition of growth stands for the change of the read-out against control, counted positive when it falls. Regarding `CCOC(=O)Nc1cc2c(c(N)n1)N=C(c1ccccc1)C(c1ccccc1)O2` (stereo not shown) [CAO-040, (5-Amino-2,3-diphenyl-2H-pyrido-[4,3b][1,4]oxazin-7-yl)-carbamic acid ethyl ester], the inhibition of growth at 12.5 µg/mL stood at 90%.

Take `CCN(CC)S(=O)(=O)c1ccc(CNc2cc(N)nc3nc(-c4ccccc4)c(-c4ccccc4)nc23)cc1` [Compound 4427-143, 4-[(6-Amino-2,3-diphenyl-pyrdo[2,3b]pyrazin-8-yl-amino)-methyl]-N,N-diethyl-benzenesulfonamide]: the inhibition of growth at 12.5 µg/mL stood at 99%.

Regarding `CCOC(=O)Nc1cc2c(c(N)n1)N=C(CN(C)c1ccc(OC)cc1)CN2` [SRI-5713, (5-Amino-3-{[(4-methoxy-phenyl)-methyl-amino]-methyl}-1,2-dihydro-pyrido[3,4-b]pyrazin-7-yl)-carbamic acid ethyl ester], the inhibition of growth at 12.5 µg/mL was 20%.

For the molecule `CCCCNC(=O)Oc1ccc(C2=Nc3c(cc(NC(=O)OCC)nc3N)N[C@H]2C)cc1` [SRI-20158, [5-Amino-3-(4-butylcarbamoyloxy-phenyl)-2-methyl-1,2-dihydro-pyrido[3,4-b]pyrazin-7-yl]-carbamic acid ethyl ester], the inhibition of growth at 12.5 µg/mL was found to be 10%.

The experiment is the same for the next values; noted with them: in words.
Regarding `CCOC(=O)Nc1cc2c(c(N)n1)N=C(c1ccccc1)C(c1ccccc1)O2` (stereo not shown) [CAO-040, (5-Amino-2,3-diphenyl-2H-pyrido-[4,3b][1,4]oxazin-7-yl)-carbamic acid ethyl ester], the “activity against M. tuberculosis H37Rv in the primary screen” value is on record as “demonstrated activity”.

`CCN(CC)S(=O)(=O)c1ccc(CNc2cc(N)nc3nc(-c4ccccc4)c(-c4ccccc4)nc23)cc1` [Compound 4427-143, 4-[(6-Amino-2,3-diphenyl-pyrdo[2,3b]pyrazin-8-yl-amino)-methyl]-N,N-diethyl-benzenesulfonamide]: the “activity against M. tuberculosis H37Rv in the primary screen” value is on record as “demonstrated activity”.

A further experiment deals with M. tuberculosis H37Rv. The experiment can be described thus: MIC99 determination, BACTEC 460 radiometric system. Type of experiment: cell-based. The settings on record: Mycobacterium tuberculosis; M. tuberculosis H37Rv, Table 3; read-out: Screen 2 MIC99.
By MIC99 is commonly meant an inhibitory concentration at the 99% level, which refers to growth in some studies and to a panel of isolates in others. Regarding `CCOC(=O)Nc1cc2c(c(N)n1)N=C(c1ccccc1)C(c1ccccc1)O2` (stereo not shown) [CAO-040, (5-Amino-2,3-diphenyl-2H-pyrido-[4,3b][1,4]oxazin-7-yl)-carbamic acid ethyl ester], the MIC99 is 6.25 µg/mL (≈ 16.1 µM).

As to `CCN(CC)S(=O)(=O)c1ccc(CNc2cc(N)nc3nc(-c4ccccc4)c(-c4ccccc4)nc23)cc1` [Compound 4427-143, 4-[(6-Amino-2,3-diphenyl-pyrdo[2,3b]pyrazin-8-yl-amino)-methyl]-N,N-diethyl-benzenesulfonamide], the MIC99 was determined as 3.13 µg/mL (≈ 5.81 µM).

Staying with this experiment, now noted: Mycobacterium tuberculosis; M. tuberculosis H37Rv, Table 8; read-out: MIC.
In general, MIC refers to the least concentration at which growth counts as inhibited. On to `CCOC(=O)Nc1cc(NC(C)CCCN(CC)CC)c2ncc(-c3ccc(Cl)cc3)nc2n1.Cl` (stereo not shown) [Compound A5], for which the MIC is 1.56 µg/mL.

Turning to `CCOC(=O)Nc1cc(NC(C)CCCN(CC)CC)c2nc(-c3ccc(Cl)cc3)c(-c3ccc(Cl)cc3)nc2n1` (stereo not shown) [Compound A6], the MIC was 1.56 µg/mL (≈ 2.62 µM).

As for `CCOC(=O)Nc1cc2c(c(N)n1)N=C(c1ccc(OCc3ccccc3)cc1)[C@H](C)N2` [Compound A8], the MIC was 6.25 µg/mL (≈ 14.5 µM).

In the case of `CCOC(=O)Nc1cc2c(c(N)n1)N=C(c1ccc(OCc3ccccc3)cc1)[C@@H](C)N2` [Compound A9], the MIC stood at 6.25 µg/mL (≈ 14.5 µM).
